Assay results published in article PMC10257291, “Biological activities of extracts and compounds from Thai Kae-Lae (Maclura cochinchinensis (Lour.) Corner)” (BMC Complementary Medicine and Therapies, 2023).

Experiments:
ABTS assay = settings: compared in words
Procedure: Briefly, the sample (20 μL) was mixed with of the ABTS^•^+ solution (180 μL) that had been prepared overnight. The combined mixture was incubated at room temperature (25 °C) for 5 min before assessing the UV absorbance at 750 nm with a microplate reader (Spectrostar Nano, BMG Labtech GmbH, Ortenberg, Germany). The findings were described as Trolox equivalent antioxidant capacity (TEAC). All experiments were conducted in triplicate.

FRAP assay = settings: compared in words
Procedure: Briefly, sample (20 μL) was mixed with FRAP solution (180 μL). The combined mixture was incubated at room temperature (25 °C) in the dark for 5 min before assessing the UV absorbance was measured at 595 nm with a microplate reader (Beckman CoulterDTX880, Fullerton, CA, USA). The findings were described as equivalent concentration (EC1). L-ascorbic acid served as a positive control. All experiments were conducted in triplicate.

DPPH assay = settings: compared in words
Procedure: The DPPH^• scavenging activity of crude fractional extracts and their biological active compounds were investigated using DPPH assay. Briefly, the sample (20 μL) was mixed with 167 μM DPPH solution (180 μL). The combined mixture was incubated at room temperature (25 °C) in the dark for 30 min before assessing the UV absorbance at 520 nm with a microplate reader (Beckman CoulterDTX880, Fullerton, CA, USA). The DPPH^• scavenging activity was presented in terms of the percentage of inhibition that was calculated using the following equation: 2 %DPPH^·inhibition=A-B/A×100 A is the UV absorbance of the mixture in the absence of a sample solution, and B is the UV absorbance of the mixture in the […] of a sample solution. L-ascorbic acid served as a positive control. All experiments were conducted in triplicate.

WT1 protein [1] = experiment: WT1 protein expression by Western blot in KG-1a cells; assay type: cell-based, human; settings: IC20 value, 48 h, vs vehicle control
Procedure: (§1) Leukaemic stem cells (KG-1a) and leukaemic cells (EoL-1 and K562) were used as cell models which overexpressed WT1 protein expression. Cells were treated with crude fractional extracts and active compounds at a 20% growth inhibition (IC20 value) of each extract. Following 48-h of incubation, cells were washed. The whole protein was extracted using RIPA buffer. The protein concentration was determined by the Pierce™ BCA Protein Assay Kit (ThermoFisher Scientific, IL, USA). Extracted protein sample at 30 − 50 μg was loaded to 12% SDS-PAGE and then transferred to PVDF membranes. The method was done as previously described. The specific protein bands were determined by Luminata™ Forte Western HRP substrate (Merck, Darmstadt, Germany) and exposed to X-ray film (Sakura, Japan). Quantity One 1-D Analysis software (Bio-Rad, USA) was used to quantify densitometry. The density values of WT1 bands were normalized to GAPDH bands.

MCF-7 cells = experiment: Cell migration assay (wound healing scratch); assay type: cell-based, human; settings: non-toxic dose, after 24 h of wounding
Procedure: Inhibitory effect of the extracts on cell migration of MCF-7 cells was assessed by wound healing scratch assays. First, cells were plated into 24-well plates and incubated in a CO2 incubator with humidified atmosphere of 5% CO2. After reaching the confluent monolayer forms, a longitudinal wound was created by scratching using SPLTM Scar Scratcher. Then, the non-toxic dose of each extract in complete DMEM medium was added into each well and cell migration was monitored and observed under Leica DM IL LED inverted microscopy and the images of cell-free area were captured at 0, 6, 12, and 24 h after wounding, then measured using ImageJ software. The percentage of wound width was calculated by the following formula:6 Woundwidth(%)=(Cell-[…] Where “Cell-free […]” is the cell-free area at any time point of imaging while “Cell-free area0.h” is the cell-free area at the beginning of wounding.

TNF-α = TNF-α secretion in LPS-stimulated RAW 264.7 cells (ELISA); assay type: cell-based, mouse; settings: sample at IC20 value; vs dexamethasone 1 μg/mL; LPS 1 μg/mL
Description: Mouse monocyte macrophage RAW 264.7 cells (American Type Culture Collection, […]-71) were stimulated with lipopolysaccharide (LPS) or phytohemagglutinin (PHA). The LPS treated RAW 264.7 cells served as a vehicle control, of which the NO production, and the secreted cytokines were defined as 100%, whereas a negative control was non-treated RAW 264.7 cells. Dexamethasone (an anti-inflammatory drug) was used as a positive control. PBMCs (1 × 10^5 cells/well in RPMI-1640 for IL-2) and Raw cells (1 × 10^5 cells/well in DMEM for TNF-α) were seeded for 24 h in a CO2 incubator set at 37 °C and 5% CO2/95% humidified air. Then cells were treated with […] fractional extracts (IC20 value) or pure compounds (IC20 value), or dexamethasone (1 μg/mL) were added. […] After 24 h, the media were removed and centrifuged at 13,500 × g for 10 min and 100 μL of the supernatant was analysed by the protocol of R&D Systems, Minneapolis, MN, USA using ELISA technique. The absorbance was measured at 450 nm and corrected with the reference wavelength of 570 nm (Beckman CoulterDTX880, Fullerton, CA, USA). Viability of PBMCs and RAW 264.7 cells was also determined using MTT assay as described previously. IL-2 and TNF-α secretion inhibitions were calculated as bellow:4 %Cytokineinhibition=A-B/A×100 A is the optical density of the mixture without the sample, while B is the optical density of the mixture with the sample. […]

EoL-1 cells = experiment: Total cell number by trypan blue exclusion, EoL-1 cells; assay type: cell-based, human; settings: IC20 value, 48 h, vs vehicle control
Procedure: (§2) According to the principle of trypan blue exclusion, viable cells with intact membranes can exclude trypan blue dye, while dead cells with compromised membranes are stained by the trypan blue dye solution. A cell suspension and trypan blue dye solution (0.2%) were mixed, and viable and dead cells were counted under microscope using a hemacytometer. Then, the percentage of viable cells was calculated. KG-1a, EoL-1 and K562 cells were cultured with crude fractional extracts and active pure compounds at various concentrations (10 − 20% growth inhibition; IC10 − IC20 values) of each extract for 48 h, at a 20% growth inhibition (IC20 value) of each extract for 24 and 48 h. Following incubation, cells were harvested, and the total cell number was counted using trypan blue exclusion method. Three independent experiments were plotted as a dose–response curve and compared with the vehicle control. Meanwhile, the total cell number of each cell line after fractional extract and pure compound treatments at 24 and 48 h were calculated and plotted as a time-response curve. Slopes from each graph were considered as the rate of cell proliferation.

KG-1a cells = experiment: Rate of proliferation, KG-1a cells; assay type: cell-based, human; settings: for decrease of rate of proliferation, KG-1a cells: IC20 value, 24 and 48 h (time-response), vs control; for rate of cell proliferation, KG-1a cells (in words): concentrations IC10 − IC20 values, 48 h
Procedure: as §2

WT1 protein [2] = experiment: WT1 protein expression by Western blot in K562 cells; assay type: cell-based, human; settings: IC20 value, 48 h, vs vehicle control
Procedure: as §1

## O=c1c(O)c(-c2ccc(O)cc2O)oc2cc(O)cc(O)c12 [Morin, 2’,3,4’,5,7-pentahydroxyflavonone]
ABTS assay
  TEAC (ABTS antioxidant activity): comparable TEAC and EC1 values with those of ascorbic acid
FRAP assay
  EC1 (FRAP antioxidant activity): comparable TEAC and EC1 values with those of ascorbic acid
DPPH assay
  DPPH• inhibition: significantly more potent than ascorbic acid
WT1 protein [1]
  suppression of WT1 protein expression in KG-1a cells: 32.89 ± 8.76%
MCF-7 cells
  wound width: 60.5 ± 3.8%

## O=c1c(O)c(-c2ccc(O)c(O)c2)oc2cc(O)cc(O)c12 [Quercetin, quercetin]
ABTS assay
  TEAC (ABTS antioxidant activity): comparable TEAC and EC1 values with those of ascorbic acid
FRAP assay
  EC1 (FRAP antioxidant activity): comparable TEAC and EC1 values with those of ascorbic acid
DPPH assay
  DPPH• inhibition: significantly more potent than ascorbic acid
TNF-α
  TNF-α inhibition: significantly more potent inhibition of IL-2, TNF-α, and NO than dexamethasone
EoL-1 cells
  decrease of total cell number, EoL-1 cells: 23.25%
KG-1a cells
  decrease of rate of proliferation, KG-1a cells: significantly decreasing rates of proliferation
  rate of cell proliferation, KG-1a cells (in words): significantly decreasing rate of cell proliferation

## Oc1ccc(/C=C/c2cc(O)cc(O)c2)cc1 [Resveratrol, resveratrol]
WT1 protein [2]
  suppression of WT1 protein expression in K562 cells: 53.78 ± 4.28%
WT1 protein [1]; listed as resveratrol
  suppression of WT1 protein expression in KG-1a cells: 60.27 ± 11.44%
EoL-1 cells
  decrease of total cell number, EoL-1 cells: 74.14%
KG-1a cells
  decrease of rate of proliferation, KG-1a cells: 86.02%
  rate of cell proliferation, KG-1a cells (in words): significantly decreasing rate of cell proliferation
MCF-7 cells
  wound width: 32.8 ± 0.7%
